The values that follow come from ChEMBL document CHEMBL1201862, “PubChem BioAssay data set” (2004).

Assay [1] deals with Interleukin-1 receptor-associated kinase 4 (Homo sapiens, UniProt Q9NWZ3). In kind it is functional.
Assay [2] has as its target Cell division cycle 7-related protein kinase (Homo sapiens, UniProt O00311). In kind it is functional.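 Also: value obtained from a kinome-wide kinase panel.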
Assay [3] deals with Mitogen-activated protein kinase kinase kinase kinase 4 (Homo sapiens, UniProt O95819). In kind it is functional.
Assay [4] addresses Glycogen synthase kinase-3 beta (Homo sapiens, UniProt P49841). In kind it is functional.
The target in assay [5] is Serine/threonine-protein kinase pim-1 (Homo sapiens, UniProt P11309). Format: functional.
Chain of Serine/threonine-protein kinase pim-1 (P11309 whole entry): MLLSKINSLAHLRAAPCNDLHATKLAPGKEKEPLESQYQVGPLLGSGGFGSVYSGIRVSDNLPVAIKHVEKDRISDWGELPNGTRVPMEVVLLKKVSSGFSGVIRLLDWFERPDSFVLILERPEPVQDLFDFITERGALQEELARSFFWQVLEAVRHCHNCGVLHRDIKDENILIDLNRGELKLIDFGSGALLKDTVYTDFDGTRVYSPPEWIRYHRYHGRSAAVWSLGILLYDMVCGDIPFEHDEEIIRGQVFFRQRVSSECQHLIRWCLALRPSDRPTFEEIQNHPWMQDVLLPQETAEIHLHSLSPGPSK
In assay [6] the target is Homeodomain-interacting protein kinase 2 (Homo sapiens, UniProt Q9H2X6). In kind it is functional.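 Also: measured within a kinome-wide kinase profiling panel, HIPK2 being one panel member.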
Chain of Homeodomain-interacting protein kinase 2 (Q9H2X6 whole entry): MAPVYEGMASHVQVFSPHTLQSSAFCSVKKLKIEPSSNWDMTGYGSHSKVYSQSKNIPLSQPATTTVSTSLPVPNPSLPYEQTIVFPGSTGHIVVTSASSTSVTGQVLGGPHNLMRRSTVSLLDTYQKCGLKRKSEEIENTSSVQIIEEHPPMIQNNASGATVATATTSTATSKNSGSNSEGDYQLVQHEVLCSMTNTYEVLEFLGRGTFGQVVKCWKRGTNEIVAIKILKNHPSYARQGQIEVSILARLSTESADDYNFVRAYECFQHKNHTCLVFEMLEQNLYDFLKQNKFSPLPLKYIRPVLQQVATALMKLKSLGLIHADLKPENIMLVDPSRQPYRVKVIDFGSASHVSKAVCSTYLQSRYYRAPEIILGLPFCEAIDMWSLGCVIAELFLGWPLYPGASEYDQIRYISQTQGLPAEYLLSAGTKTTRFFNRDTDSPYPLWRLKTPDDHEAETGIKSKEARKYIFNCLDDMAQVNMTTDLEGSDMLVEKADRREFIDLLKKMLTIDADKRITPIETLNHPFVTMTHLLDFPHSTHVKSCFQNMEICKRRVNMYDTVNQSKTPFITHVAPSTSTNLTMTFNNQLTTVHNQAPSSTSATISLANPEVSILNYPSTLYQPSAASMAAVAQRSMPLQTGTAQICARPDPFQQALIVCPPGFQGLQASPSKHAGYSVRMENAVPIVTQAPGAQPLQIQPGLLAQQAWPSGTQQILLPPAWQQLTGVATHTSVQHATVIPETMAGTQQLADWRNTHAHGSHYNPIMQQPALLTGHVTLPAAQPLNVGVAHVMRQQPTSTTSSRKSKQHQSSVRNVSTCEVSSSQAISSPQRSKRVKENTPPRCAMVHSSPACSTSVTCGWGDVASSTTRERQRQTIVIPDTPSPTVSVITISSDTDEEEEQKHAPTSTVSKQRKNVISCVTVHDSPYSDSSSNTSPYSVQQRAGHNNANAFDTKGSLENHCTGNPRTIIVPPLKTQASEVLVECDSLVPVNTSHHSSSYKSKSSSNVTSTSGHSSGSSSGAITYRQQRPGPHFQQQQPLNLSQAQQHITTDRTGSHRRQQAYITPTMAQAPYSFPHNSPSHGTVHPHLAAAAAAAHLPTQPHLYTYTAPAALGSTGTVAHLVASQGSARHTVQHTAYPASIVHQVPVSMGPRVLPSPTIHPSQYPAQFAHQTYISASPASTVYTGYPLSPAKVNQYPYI
The target of assay [7] is cAMP-dependent protein kinase catalytic subunit alpha (Homo sapiens, UniProt P17612). Format: functional.
Assay [8] concerns the target Dual specificity protein kinase CLK4 (Homo sapiens, UniProt Q9HAZ1). Format: functional.
A further assay concerns the target Lethal factor (Bacillus anthracis, UniProt P15917). The assay can be described thus: High-throughput multiplex microsphere dose response for inhibitors of toxin protease, specifically Lethal Factor protease, compounds from Cherry Pick 02. In kind it is functional. The following applies: read-out: EC50_MICROM.
In assay [9] the target is T1, Rac GTPase-activating protein 1 (Homo sapiens, UniProt Q9H0H5).
T1 sequence (Q9H0H5 whole entry): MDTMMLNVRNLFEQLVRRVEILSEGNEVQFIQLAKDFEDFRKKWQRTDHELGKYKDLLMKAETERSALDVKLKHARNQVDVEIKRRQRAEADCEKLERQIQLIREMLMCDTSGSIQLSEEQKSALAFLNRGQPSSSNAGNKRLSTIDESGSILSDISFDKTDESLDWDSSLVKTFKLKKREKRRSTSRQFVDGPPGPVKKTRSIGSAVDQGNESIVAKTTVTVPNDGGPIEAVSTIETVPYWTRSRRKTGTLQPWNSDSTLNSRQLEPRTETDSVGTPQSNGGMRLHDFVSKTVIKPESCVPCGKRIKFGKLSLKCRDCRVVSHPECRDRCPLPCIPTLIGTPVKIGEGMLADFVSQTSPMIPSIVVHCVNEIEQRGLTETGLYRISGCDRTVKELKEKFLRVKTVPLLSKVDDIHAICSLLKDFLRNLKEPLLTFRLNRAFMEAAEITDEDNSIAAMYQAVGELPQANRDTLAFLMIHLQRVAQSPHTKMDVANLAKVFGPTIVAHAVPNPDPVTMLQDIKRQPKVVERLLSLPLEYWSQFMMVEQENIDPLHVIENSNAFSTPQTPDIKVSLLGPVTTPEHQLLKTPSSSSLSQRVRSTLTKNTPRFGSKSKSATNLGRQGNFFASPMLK
The assay can be described thus: blockers of MgcRacGAP-driven Rac1 GTP hydrolysis – biochemical, ADP Hunter fluorescence, primary and confirmatory, confirmation (AID 624330). Format: functional.

The target of assay [10] is Botulinum neurotoxin type F (Clostridium botulinum, UniProt P30996). Description: High-throughput multiplex microsphere dose response for inhibitors of toxin protease, specifically Botulinum neurotoxin light chain F protease, compounds from Cherry Pick 02. Format: functional. The following applies: read-out: EC50_MICROM.
Chain of Botulinum neurotoxin type F (P30996 1-436 limits assumed): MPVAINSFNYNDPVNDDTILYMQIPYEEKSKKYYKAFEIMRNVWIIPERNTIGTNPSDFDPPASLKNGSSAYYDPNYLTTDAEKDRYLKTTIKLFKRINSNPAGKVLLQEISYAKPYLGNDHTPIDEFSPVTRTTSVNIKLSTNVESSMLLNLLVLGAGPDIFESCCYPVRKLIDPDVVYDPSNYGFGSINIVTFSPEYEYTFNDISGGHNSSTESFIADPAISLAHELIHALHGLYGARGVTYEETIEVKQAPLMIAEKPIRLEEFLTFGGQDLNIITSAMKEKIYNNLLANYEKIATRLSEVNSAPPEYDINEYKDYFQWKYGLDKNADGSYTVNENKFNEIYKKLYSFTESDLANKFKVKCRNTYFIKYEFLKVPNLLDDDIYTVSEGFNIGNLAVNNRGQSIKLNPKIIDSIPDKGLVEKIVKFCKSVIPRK
In a further assay the target is Nonstructural protein 1 (Influenza A virus, UniProt Q194T2). Format: functional, Influenza A virus (A/California/07/2009(H1N1)).
Chain of Nonstructural protein 1 (Q194T2 whole entry): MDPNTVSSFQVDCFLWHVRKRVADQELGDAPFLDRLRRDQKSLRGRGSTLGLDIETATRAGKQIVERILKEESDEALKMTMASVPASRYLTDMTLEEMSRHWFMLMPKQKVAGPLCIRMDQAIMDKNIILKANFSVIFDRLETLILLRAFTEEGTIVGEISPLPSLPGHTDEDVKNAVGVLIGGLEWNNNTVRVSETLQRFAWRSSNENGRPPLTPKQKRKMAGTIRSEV
The nature of assay [11]: viability loss in HeLa cells – cytotoxicity control for MgcRacGAP inhibitor project, dose response (AID 624300). Format: functional.
For assay [12], the target named is Botulinum neurotoxin type A (Clostridium botulinum (strain Hall / ATCC 3502 / NCTC 13319 / Type A), UniProt P0DPI1). The assay can be described thus: High-throughput multiplex microsphere dose response for inhibitors of toxin protease, specifically Botulinum neurotoxin light chain A protease, compounds from Cherry Pick 02. Format: functional. The settings on record: read-out: EC50_MICROM.
Chain of Botulinum neurotoxin type A (P0DPI1 2-448 limits assumed): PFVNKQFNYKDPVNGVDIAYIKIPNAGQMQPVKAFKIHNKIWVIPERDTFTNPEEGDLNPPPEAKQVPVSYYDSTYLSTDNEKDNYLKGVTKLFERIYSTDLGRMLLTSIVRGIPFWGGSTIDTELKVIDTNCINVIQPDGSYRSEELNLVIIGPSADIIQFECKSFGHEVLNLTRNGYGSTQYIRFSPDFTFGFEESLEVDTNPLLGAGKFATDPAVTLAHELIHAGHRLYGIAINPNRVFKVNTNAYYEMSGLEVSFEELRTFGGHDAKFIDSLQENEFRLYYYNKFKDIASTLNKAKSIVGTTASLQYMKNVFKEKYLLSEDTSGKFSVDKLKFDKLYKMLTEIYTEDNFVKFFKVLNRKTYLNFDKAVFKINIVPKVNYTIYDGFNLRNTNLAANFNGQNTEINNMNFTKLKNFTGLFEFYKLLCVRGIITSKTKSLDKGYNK

Assay [13] addresses T2, Histone-lysine N-methyltransferase NSD2 (Homo sapiens, UniProt O96028).
T2 sequence (O96028 whole entry): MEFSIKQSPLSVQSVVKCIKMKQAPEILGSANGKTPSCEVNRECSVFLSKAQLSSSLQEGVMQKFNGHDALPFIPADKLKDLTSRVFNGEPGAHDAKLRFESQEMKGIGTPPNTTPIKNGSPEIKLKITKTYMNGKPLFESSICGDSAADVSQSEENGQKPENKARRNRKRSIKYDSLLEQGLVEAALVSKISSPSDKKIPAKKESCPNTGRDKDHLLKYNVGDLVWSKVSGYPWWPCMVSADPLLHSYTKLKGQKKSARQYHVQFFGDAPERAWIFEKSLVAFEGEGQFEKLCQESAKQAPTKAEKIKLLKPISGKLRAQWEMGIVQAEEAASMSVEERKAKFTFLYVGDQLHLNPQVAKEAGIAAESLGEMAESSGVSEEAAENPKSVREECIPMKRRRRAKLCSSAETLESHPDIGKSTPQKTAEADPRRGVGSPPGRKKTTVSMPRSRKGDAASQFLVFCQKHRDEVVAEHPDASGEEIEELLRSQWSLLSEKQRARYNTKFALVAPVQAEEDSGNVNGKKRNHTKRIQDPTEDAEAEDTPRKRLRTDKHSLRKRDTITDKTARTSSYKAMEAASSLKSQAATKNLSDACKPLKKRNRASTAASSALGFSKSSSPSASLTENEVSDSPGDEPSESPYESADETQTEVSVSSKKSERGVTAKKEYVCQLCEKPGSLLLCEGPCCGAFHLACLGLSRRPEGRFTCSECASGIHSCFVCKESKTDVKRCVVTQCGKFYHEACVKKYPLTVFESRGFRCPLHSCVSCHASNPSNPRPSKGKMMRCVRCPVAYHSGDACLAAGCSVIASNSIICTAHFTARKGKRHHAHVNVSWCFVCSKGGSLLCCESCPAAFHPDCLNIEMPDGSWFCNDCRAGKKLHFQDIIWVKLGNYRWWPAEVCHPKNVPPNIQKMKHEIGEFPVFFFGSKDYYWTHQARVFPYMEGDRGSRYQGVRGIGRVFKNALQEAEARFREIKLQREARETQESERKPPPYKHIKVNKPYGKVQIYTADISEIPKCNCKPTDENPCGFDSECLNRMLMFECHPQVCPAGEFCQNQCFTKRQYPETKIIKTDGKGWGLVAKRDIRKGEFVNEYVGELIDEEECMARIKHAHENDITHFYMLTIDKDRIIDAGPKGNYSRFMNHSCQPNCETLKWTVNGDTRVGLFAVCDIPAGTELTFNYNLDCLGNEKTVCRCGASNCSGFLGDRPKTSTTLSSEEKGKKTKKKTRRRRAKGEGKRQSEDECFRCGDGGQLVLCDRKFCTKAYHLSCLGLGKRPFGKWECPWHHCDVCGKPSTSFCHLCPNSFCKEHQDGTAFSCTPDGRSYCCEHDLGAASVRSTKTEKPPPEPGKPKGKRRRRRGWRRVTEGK
In kind it is biochemical.

The structures appear in SMILES notation. Activity calls are given as the source filed them.

Chain of Dual specificity protein kinase CLK4 (Q9HAZ1 whole entry): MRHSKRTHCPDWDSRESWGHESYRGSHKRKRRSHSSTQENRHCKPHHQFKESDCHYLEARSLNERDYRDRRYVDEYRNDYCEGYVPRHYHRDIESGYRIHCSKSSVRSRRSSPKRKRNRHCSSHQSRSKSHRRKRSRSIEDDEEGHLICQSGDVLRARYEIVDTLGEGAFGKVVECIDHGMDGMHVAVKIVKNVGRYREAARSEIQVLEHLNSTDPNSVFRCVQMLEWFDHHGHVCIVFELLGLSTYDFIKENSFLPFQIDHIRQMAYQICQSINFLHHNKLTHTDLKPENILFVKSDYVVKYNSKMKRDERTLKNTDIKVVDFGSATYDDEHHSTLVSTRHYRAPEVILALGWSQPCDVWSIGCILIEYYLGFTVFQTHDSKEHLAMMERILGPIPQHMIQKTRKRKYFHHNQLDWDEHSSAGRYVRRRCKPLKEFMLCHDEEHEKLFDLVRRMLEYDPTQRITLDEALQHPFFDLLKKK
Chain of Interleukin-1 receptor-associated kinase 4 (Q9NWZ3 whole entry): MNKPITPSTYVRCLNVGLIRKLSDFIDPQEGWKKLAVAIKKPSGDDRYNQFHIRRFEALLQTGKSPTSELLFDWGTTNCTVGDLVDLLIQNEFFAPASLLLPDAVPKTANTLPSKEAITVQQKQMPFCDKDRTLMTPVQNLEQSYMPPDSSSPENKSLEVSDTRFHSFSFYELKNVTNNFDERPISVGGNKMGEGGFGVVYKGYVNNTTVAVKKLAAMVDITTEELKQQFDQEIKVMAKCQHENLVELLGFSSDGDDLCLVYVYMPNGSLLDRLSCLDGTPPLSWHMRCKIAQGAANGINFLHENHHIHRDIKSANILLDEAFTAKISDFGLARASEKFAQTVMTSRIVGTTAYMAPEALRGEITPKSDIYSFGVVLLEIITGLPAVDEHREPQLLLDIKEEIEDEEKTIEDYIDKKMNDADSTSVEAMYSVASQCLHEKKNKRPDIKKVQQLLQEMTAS
Chain of Lethal factor (P15917 whole entry): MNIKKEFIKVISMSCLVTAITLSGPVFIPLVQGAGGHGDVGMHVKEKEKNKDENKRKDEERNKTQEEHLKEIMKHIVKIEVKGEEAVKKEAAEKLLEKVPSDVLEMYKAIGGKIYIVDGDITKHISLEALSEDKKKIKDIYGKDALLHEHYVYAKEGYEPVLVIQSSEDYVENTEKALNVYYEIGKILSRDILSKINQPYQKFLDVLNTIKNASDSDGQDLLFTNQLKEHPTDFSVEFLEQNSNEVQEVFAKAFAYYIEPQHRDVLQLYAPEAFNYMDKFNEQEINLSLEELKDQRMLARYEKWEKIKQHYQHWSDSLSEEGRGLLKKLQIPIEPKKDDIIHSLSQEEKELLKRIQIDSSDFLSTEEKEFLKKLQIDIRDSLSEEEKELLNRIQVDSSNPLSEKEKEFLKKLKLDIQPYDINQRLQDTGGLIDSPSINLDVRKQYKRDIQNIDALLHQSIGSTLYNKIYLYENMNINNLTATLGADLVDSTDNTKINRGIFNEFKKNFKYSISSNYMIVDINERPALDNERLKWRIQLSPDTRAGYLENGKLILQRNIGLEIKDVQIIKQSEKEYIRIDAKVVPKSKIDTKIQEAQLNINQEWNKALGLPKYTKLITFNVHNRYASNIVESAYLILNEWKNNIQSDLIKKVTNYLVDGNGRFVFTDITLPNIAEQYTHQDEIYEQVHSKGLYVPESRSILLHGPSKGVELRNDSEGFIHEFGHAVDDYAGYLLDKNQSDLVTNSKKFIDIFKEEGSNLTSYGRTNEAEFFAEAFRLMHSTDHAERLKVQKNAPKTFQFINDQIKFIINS
Chain of Cell division cycle 7-related protein kinase (O00311 whole entry): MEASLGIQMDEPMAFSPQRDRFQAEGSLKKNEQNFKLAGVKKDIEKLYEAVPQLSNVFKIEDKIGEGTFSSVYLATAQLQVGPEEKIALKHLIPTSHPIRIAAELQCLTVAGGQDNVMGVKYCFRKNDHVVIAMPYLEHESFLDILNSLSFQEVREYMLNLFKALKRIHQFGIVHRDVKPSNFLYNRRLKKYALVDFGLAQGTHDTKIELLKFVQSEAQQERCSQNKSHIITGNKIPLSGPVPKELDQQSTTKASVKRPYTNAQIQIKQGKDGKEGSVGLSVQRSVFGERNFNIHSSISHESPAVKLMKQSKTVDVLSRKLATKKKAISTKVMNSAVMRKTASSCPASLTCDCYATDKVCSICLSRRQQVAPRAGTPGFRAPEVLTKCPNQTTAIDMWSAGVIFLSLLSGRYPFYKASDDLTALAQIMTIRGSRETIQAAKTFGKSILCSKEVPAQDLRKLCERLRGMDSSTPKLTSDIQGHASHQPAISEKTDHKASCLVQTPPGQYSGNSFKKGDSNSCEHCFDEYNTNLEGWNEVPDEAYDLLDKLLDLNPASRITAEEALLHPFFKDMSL

In general, Ki refers to a measure of affinity in units of concentration, obtained from inhibition or displacement. As for `COCCN(CCOC)c1cc(-c2c[nH]c3ncccc23)cc(Cl)n1`, the Ki is 2510 nM (active) in assay [1]; 10 nM (active) in assay [2]; 20 nM (active) in assay [3]; 1000 nM (active) in [4]; 1260 nM (active) in assay [5]; 251 nM (active) in assay [6]. In addition, the values for the inhibition constant Ki in assay [7] and in assay [8] were 501 nM (active) and 10 nM (active), respectively.

As usually defined, the IC50 is the concentration at which inhibition is half-maximal. As usually defined, the CC50 is the concentration that lowers cell viability or growth by half. For orientation: AC50 means the concentration at which the activity in the assay is half-maximal. In the case of `CN(C)c1ccc(/C=C2/C[N+](C)(C)C/C(=C/c3ccc(N(C)C)cc3)C2=O)cc1`, the EC50 was 600 nM (active) on Lethal factor, > 20000 nM (inactive) in assay [10] and 1600 nM (active) in [12]. Further, the results for the IC50 (in [9]; on Nonstructural protein 1) were 82900 nM (active) and 6590 nM (active), respectively. In addition, the half-maximal cytotoxic concentration (CC50) in assay [11] was 100000 nM (active). Also, the AC50 in assay [13] is 11900 nM (active).
